{"source": "patent US12099061B2", "about": "“Nidogen 1 as a diagnostic marker and therapeutic target of hepatocellular carcinoma, composition and methods thereof” (THE UNIVERSITY OF HONG KONG, priority 2020, dated 2024)", "test_system": "MHCC97L cells", "assay": "EV secretion of MHCC97L cells treated with Tipifarnib", "format": "cell-based, human", "settings": "1 μM Tipifarnib for 48 hr; EVs isolated from conditioned medium", "description": "FIGS. 11A-11B Reduction of EV secretion attenuates liver tumor formation. (A) Quantification of EVs isolated from conditioned medium of MHCC97L treated with 1 μM Tipifarnib or DMSO vehicle for 48 hr. The analysis was done in triplicate. (B) Image of dissected liver of mice subjected to orthotopic liver injection of Matrigel/MHCC97L (1×10^6 cells/injection) pretreated with 48-hr DMSO or Tipifarnib (1 μM) (n=6). Measurement of tumor volume is shown. Data are represented as mean±SEM. *P<0.05 and ***P<0.001 from Student's t test.\nProtein lysates were obtained by cell lysis with NETN lysis buffer (0.1% NP40, 25 mM Tris-HCl, 50 mM […], 0.2 mM EDTA), supplemented with 10% cOmplete™ protease inhibitor cocktail and 10% PhosStop phosphatase inhibitor cocktail (Roche Applied Science). Bradford reagent (Bio-Rad Corporation) using bovine serum albumin as standard concentration was used to quantify protein amount. […] Chemiluminescent signals were detected by ECL™ Western Blotting Detection Reagents (Amersham). […] The level of EV-CD63 was expressed as amount of CD63 over EV protein amount (μg/μg) (w/w). […] The amount of isolated EVs was quantified. […] After 6 weeks post injection, mice were sacrificed and liver tumor volume was measured using a caliper and calculated using the formula: volume=L×W^2×0.5 (L, the largest diameter; W, the smallest diameter). […]", "data": [{"smiles": "Cn1cncc1[C@@](N)(c1ccc(Cl)cc1)c1ccc2c(c1)c(-c1cccc(Cl)c1)cc(=O)n2C", "note": "[tipifarnib, Tipifarnib]", "values": [{"measurement": "reduction of EV secretion from MHCC97L cells", "result": "up to 50%"}]}]}
